This test deals with L1210 leukemia ip in BDF1 mice, survival T/C. Kind of test: NCI In Vivo Anticancer Drug Screen. Data for tumor model L1210 Leukemia (intraperitoneal) in B6D2F1 (BDF1) mice. The settings on record: endpoint: mean survival time, higher = longer survival. A digest of the protocol: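 Mice bearing the transplanted tumor received compound or vehicle. Survival of the treated group was divided by that of the vehicle-treated control group to give the ratio.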

[1] abbreviates: dose: 50.0 mg/kg/injection, schedule: Q01DX001 (ip), vehicle: carboxymethylcellulose (CMC).
Setting [2] is: dose: 100.0 mg/kg/injection, schedule: Q01DX001 (ip), vehicle: carboxymethylcellulose (CMC).
Setting [3] is: dose: 200.0 mg/kg/injection, schedule: Q01DX001 (ip), vehicle: carboxymethylcellulose (CMC).
[4] abbreviates: dose: 400.0 mg/kg/injection, schedule: Q01DX001 (ip), vehicle: carboxymethylcellulose (CMC).
The mark [5] stands for this setting: dose: 100.0 mg/kg/injection, schedule: Q04DX003 (ip), vehicle: Klucel (hydroxypropylcellulose) (HPC).
The mark [6] stands for this setting: dose: 200.0 mg/kg/injection, schedule: Q04DX003 (ip), vehicle: Klucel (hydroxypropylcellulose) (HPC).
The mark [7] stands for this setting: dose: 400.0 mg/kg/injection, schedule: Q04DX003 (ip), vehicle: Klucel (hydroxypropylcellulose) (HPC).
Where [8] appears, read: dose: 12.5 mg/kg/injection, schedule: Q01DX009 (ip), vehicle: saline with Tween-80.
Where [9] appears, read: dose: 25.0 mg/kg/injection, schedule: Q01DX009 (ip), vehicle: saline with Tween-80.
The mark [10] stands for this setting: dose: 100.0 mg/kg/injection, schedule: Q04DX002 (ip), vehicle: Klucel (hydroxypropylcellulose) (HPC).
The mark [11] stands for this setting: dose: 200.0 mg/kg/injection, schedule: Q04DX002 (ip), vehicle: Klucel (hydroxypropylcellulose) (HPC).
The mark [12] stands for this setting: dose: 400.0 mg/kg/injection, schedule: Q04DX002 (ip), vehicle: Klucel (hydroxypropylcellulose) (HPC).

SMILES strings stand for the structures. Where “and” joins values, the source holds several entries; their conditions need not be identical. Equal entries are not always repeated. Inconclusive results and toxic doses are left out.

On to `CN(C)N1C(=O)CC2(CCC(C(C)(C)C)CC2)CC1=O`, for which the T/C by setting is: under setting [1], 109 % of control; under setting [2], 95 % of control; under setting [3], 104 % of control; under setting [4], 104 % of control.
Regarding `NC(CS)(CS)C(=O)O`, the T/C is, setting by setting: (dose: 15.0 mg/kg/injection, schedule: Q01DX015 (ip), vehicle: carboxymethylcellulose (CMC)) 107 % of control; (dose: 30.0 mg/kg/injection, schedule: Q01DX015 (ip), vehicle: carboxymethylcellulose (CMC)) 113 % of control; (dose: 60.0 mg/kg/injection, schedule: Q01DX015 (ip), vehicle: carboxymethylcellulose (CMC)) 120 % of control.
With `O=NN(CCCl)C(=O)NC1CCC(C(=O)O)CC1` (stereo not given), the T/C is 168 % of control (dose: 6.0 mg/kg/injection, schedule: Q01DX001 (ip), vehicle: saline with Tween-80); 195 % of control and 215 % of control (dose: 9.0 mg/kg/injection, schedule: Q01DX001 (ip), vehicle: saline with Tween-80); 275 % of control and 154 % of control and 260 % of control (dose: 13.0 mg/kg/injection, schedule: Q01DX001 (ip), vehicle: saline with Tween-80); 291 % of control and 409 % of control (dose: 20.0 mg/kg/injection, schedule: Q01DX001 (ip), vehicle: saline with Tween-80); 310 % of control (dose: 30.0 mg/kg/injection, schedule: Q01DX001 (ip), vehicle: saline with Tween-80); 544 % of control (dose: 45.0 mg/kg/injection, schedule: Q01DX001 (ip), vehicle: saline with Tween-80). In addition, the T/C reads like this: (dose: 46.0 mg/kg/injection, schedule: Q01DX001 (ip), vehicle: saline with Tween-80) 311 % of control and 191 % of control; (dose: 67.5 mg/kg/injection, schedule: Q01DX001 (ip), vehicle: saline with Tween-80) 525 % of control; (dose: 93.0 mg/kg/injection, schedule: Q01DX001 (ip), vehicle: saline with Tween-80) 209 % of control and 101 % of control; (dose: 139.0 mg/kg/injection, schedule: Q01DX001 (ip), vehicle: saline with Tween-80) 91 % of control.
Turning to `CCSCC1C=CC(n2cnc3c(N)ncnc32)O1` (stereo not given), the T/C is 109 % of control under setting [1], 109 % of control under setting [2], 98 % of control under setting [3] and 109 % of control under setting [4].
For `O=S(=O)(O)c1ccc(/C2=c3\cc/c([n-]3)=C(\c3ccc(S(=O)(=O)O)cc3)c3ccc([n-]3)/C(c3ccc(S(=O)(=O)O)cc3)=c3/cc/c([n-]3)=C(\c3ccc(S(=O)(=O)O)cc3)c3ccc2[n-]3)cc1.[Co]`, the T/C is 97 % of control (dose: 50.0 mg/kg/injection, schedule: Q01DX009 (ip), vehicle: saline) and 113 % of control (dose: 100.0 mg/kg/injection, schedule: Q01DX009 (ip), vehicle: saline).
As to `CCCC(C(=O)c1ccc(OC)cc1)C(O)(C(F)(F)F)C(F)(F)F` (stereo not given), the T/C runs as follows: under setting [5], 91 % of control; under setting [6], 98 % of control; under setting [7], 100 % of control.
As to `C=CCN(CC=C)CCNc1nc(C(Cl)(Cl)Cl)nc2ccc(Cl)cc12`, the T/C is 102 % of control (dose: 100.0 mg/kg/injection, schedule: Q04DX003 (ip), vehicle: saline with Tween-80) and 87 % of control (dose: 200.0 mg/kg/injection, schedule: Q04DX003 (ip), vehicle: saline with Tween-80).
With `COC(C)CCC(=O)O.[Ag]` (stereo not given), the T/C was 95 % of control (dose: 6.25 mg/kg/injection, schedule: Q01DX009 (ip), vehicle: saline with Tween-80); 91 % of control under setting [8]; 91 % of control (dose: 12.5 mg/kg/injection, schedule: Q04DX003 (ip), vehicle: saline with Tween-80); 95 % of control under setting [9]; 96 % of control (dose: 25.0 mg/kg/injection, schedule: Q04DX003 (ip), vehicle: saline with Tween-80).
As to `Nc1c(F)c(N)c(F)c(F)c1F`, the T/C by setting is: (dose: 5.0 mg/kg/injection, schedule: Q01DX001 (ip), vehicle: acetone) 98 % of control; (dose: 10.0 mg/kg/injection, schedule: Q01DX001 (ip), vehicle: acetone) 121 % of control; (dose: 20.0 mg/kg/injection, schedule: Q01DX001 (ip), vehicle: acetone) 107 % of control; (dose: 20.0 mg/kg/injection, schedule: Q04DX002 (ip), vehicle: saline with Tween-80) 106 % of control and 115 % of control; (dose: 40.0 mg/kg/injection, schedule: Q01DX001 (ip), vehicle: acetone) 106 % of control; (dose: 40.0 mg/kg/injection, schedule: Q04DX002 (ip), vehicle: saline with Tween-80) 95 % of control and 105 % of control. Besides, the T/C reads like this: (dose: 80.0 mg/kg/injection, schedule: Q01DX001 (ip), vehicle: acetone) 101 % of control; (dose: 80.0 mg/kg/injection, schedule: Q04DX002 (ip), vehicle: saline with Tween-80) 98 % of control and 114 % of control.
As for `COc1ccc(N=Cc2cc(Br)ccc2O)cc1`, the T/C runs as follows: (dose: 100.0 mg/kg/injection, schedule: Q04DX002 (ip), vehicle: saline with Tween-80) 100 % of control; (dose: 200.0 mg/kg/injection, schedule: Q04DX002 (ip), vehicle: saline with Tween-80) 104 % of control; (dose: 400.0 mg/kg/injection, schedule: Q04DX002 (ip), vehicle: saline with Tween-80) 100 % of control.
Take `S=P(c1ccccc1)(c1ccccc1)c1ccccc1`: the T/C (dose: 50.0 mg/kg/injection, schedule: Q04DX002 (ip), vehicle: saline) was 96 % of control; the T/C (dose: 100.0 mg/kg/injection, schedule: Q04DX002 (ip), vehicle: saline) is 93 % of control; the T/C (dose: 200.0 mg/kg/injection, schedule: Q04DX002 (ip), vehicle: saline) is 96 % of control.
Take `CCOC(=O)Nc1cc2c(c(NC(=O)OCC)n1)N=C(CN(C)c1ccccc1)CN2`: the T/C is, setting by setting: under setting [8], 100 % of control; under setting [9], 105 % of control; (dose: 50.0 mg/kg/injection, schedule: Q01DX009 (ip), vehicle: saline with Tween-80) 114 % of control; (dose: 88.0 mg/kg/injection, schedule: Q01DX001 (ip), vehicle: saline with Tween-80) 105 % of control; (dose: 100.0 mg/kg/injection, schedule: Q01DX001 (ip), vehicle: saline with Tween-80) 106 % of control; (dose: 133.0 mg/kg/injection, schedule: Q01DX001 (ip), vehicle: saline with Tween-80) 97 % of control. In addition, where the note is “dose: 200.0 mg/kg/injection, schedule: Q01DX001 (ip), vehicle: saline with Tween-80”, the T/C was 113 % of control.
Regarding `O=C1c2ccccc2-c2ccc(Cl)cc21`, the T/C was 96 % of control under setting [2], 96 % of control under setting [3] and 96 % of control under setting [4].
For `CC(=O)Oc1cn(Cc2ccccc2)c2c1C(=O)CC(C)C2` (stereo not given), the T/C was 108 % of control (dose: 50.0 mg/kg/injection, schedule: Q04DX002 (ip), vehicle: Klucel (hydroxypropylcellulose) (HPC)); 94 % of control under setting [10]; 102 % of control under setting [11].
With `O=S1(=O)CC(CBr)=C(CBr)C1`, the T/C is 94 % of control (dose: 15.0 mg/kg/injection, schedule: Q01DX001 (ip), vehicle: carboxymethylcellulose (CMC)); 93 % of control (dose: 30.0 mg/kg/injection, schedule: Q01DX001 (ip), vehicle: carboxymethylcellulose (CMC)); 100 % of control (dose: 60.0 mg/kg/injection, schedule: Q01DX001 (ip), vehicle: carboxymethylcellulose (CMC)).
With `CCCCCCCCCCCCC(O)C(=O)O` (stereo not given), the T/C reads like this: under setting [5], 95 % of control; under setting [6], 95 % of control; under setting [7], 94 % of control.
For `Cc1cccc(NC(C(=O)O)c2ccccc2)c1` (stereo not given), the T/C reads like this: under setting [10], 100 % of control; under setting [11], 93 % of control; under setting [12], 89 % of control.
The corresponding values for `Oc1ccccc1/C=N/Sc1ccccc1.Oc1ccccc1/C=N/Sc1ccccc1.[Ni+2]` are 94 % of control, 94 % of control and 105 % of control.
Regarding `CCCC[N+](CC)(CC)CCOC(=O)C1C2CC3OC(=O)C1C3C2` (stereo not given), the T/C (dose: 100.0 mg/kg/injection, schedule: Q04DX003 (ip), vehicle: saline) was 101 % of control.
`NC(=S)N/N=C/c1ccccc1`: the T/C runs as follows: (dose: 75.0 mg/kg/injection, schedule: Q01DX001 (ip), vehicle: other) 103 % of control; (dose: 150.0 mg/kg/injection, schedule: Q01DX001 (ip), vehicle: other) 105 % of control.
